Like-named read-outs stand apart in the source and are kept apart here.
Legend:
[1] = tested on: PC12 cells; assay type: cell-based, rat
Protocol: […]. Very little toxicity was present at 24 hours, and cytotoxicity at 48 hours was only slightly greater than at 24 hours. Cytotoxicity generally dipped to approximately 90% live cells when peptides were administered at 500 μM.

[2] = tested on: PC-12 cells; assay: Subcellular localization of FITC-labeled peptide and colocalization with furin, confocal microscopy; assay type: cell-based, rat; conditions: 1 and 100 μM
From the text: Two peptides of interest were FITC-labeled (Anaspec) to follow their interiorization on PC-12 cells (rat pheochromocytoma cells): L-Bel1 (SEQ ID NO. 3) and D-9Rac/am (SEQ ID NO. 15). After observation of L-Bel1-FITC conjugate interiorization, a monoclonal antibody for furin endoprotease was used for colocalization studies by confocal microscopy analysis.
PC-12 cells were resuspended in Dulbecco's modified Eagle's medium (DMEM) high glucose (Gibco BRL, Life Technologies) containing 6% decomplemented horse serum, 6% decomplemented fetal bovine serum, supplemented with 25 U/ml penicillin-streptomycin-I-glutamine. Cells were seeded at 3×10^4 cells/well (200 μl), on 8-well microscope slide chamber (BD Biosciences), previously coated with collagen I (Roche Diagnostics) solution (0.0007%). After an overnight incubation at 37° C. in 5% CO2, cells were washed twice using fresh medium without serum, and then incubated in the presence or absence of the peptide, for the indicated time. […]
The fluorescent images were obtained by confocal laser scanning microscope (Zeiss LSM 510) with lasers of argon (488 nm), helium-neon 1 (543 nm), and enterprise (364 nm); connected to an inverted fluorescence microscope (Zeiss Axiovert 100 M), equipped with a 63×/1.4 PL APO chromate objective lens.

[3] = tested on: PC12 cells; assay: Inhibition of [3H]norepinephrine neurosecretion by PC12 cells; assay type: cell-based, rat; conditions: for inhibition of secretion, stability test: 100 μM
Protocol: Using the neurosecretion assay described above, peptides fused to the TAT-PTD (L-TAT) were tested for inhibition of neurotransmitters and compared to use of L-TAT alone (SEQ ID NO: 3). In vitro screening for synthetic peptides capable of efficiently and selectively blocking neurotransmitter release in the PC12 cell line grown under defined conditions was performed.
PC12 cells were washed with DMEM-WM (Dulbecco's Modified Eagle Medium (GIBCO cat. no. 31968) completed with 25 units of penicillin and streptomycin each) and loaded for 1-2 h with [^3H] norepinephrine (NE; 0.5 μCi/ml) in DMEM-CM (DMEM-WM complemented with 6% horse serum and 6% fetal calf serum). Cells were washed for 1 h with DMEM-WM, and then washed 2 times at 5-minute intervals. Basal release was determined by a 15-minutes incubation with CaSB-glucose 5 mM K^+ (CaSB-glucose: 140 mM NaCl, 5 mM KCl, 2 mM CaCl2, 11 mM glucose, [pH 7.4]). The peptides were added to the cells at defined concentrations after loading with NE but before induction of secretion. Cells were depolarized with 85 mM K^+ (CaSB-glucose with Na^+ reduced accordingly) for 15 minutes to determine stimulated release. Superfusate (1 ml) was removed to tubes. Adherent cells were solubilized in CaSB-glucose-0.1% Triton (1 ml/well). The quantities of released and non-released radiolabeled neurotransmitter were determined by liquid scintillation counting of cleared superfusates and cell lysates, respectively. Total uptake was calculated by addition of released and retained radioactivity, and the percentage release was as calculated (released counts/total uptake counts)×100. Results were also expressed as percent inhibition of neurosecretion.

[4] = tested on: rat lung fibroblast (LF); assay: Cell contraction/relaxation on wrinkling silicone substrate, live videomicroscopy; assay type: cell-based; conditions: 10 μM and 50 μM
Protocol: To study the effect(s) of the peptides on muscle cells, which associate with neurosecretory cells at neuromuscular junctions, peptides were cultured with rat lung fibroblast (LF) grown over wrinkling substrate (silicon) which can mimic the effects of contraction. These cells have a myofibroblastic phenotype, e.g., production of TGF-β, which make them suitable for cellular contraction/relaxation studies.
Wrinkling silicone substrates were prepared as essentially described previously (Harris, et al., Science. 208:177-179, 1980; Hinz, et al., Mol Biol Cell. 12:2730-41, 2001). Briefly, 50 μl of silicone (poly dimethyl siloxane; 30.000 centistokes, Dow Corning, Midland, Mich.) were deposited onto a 35 mm round glass coverslip at the bottom of a self-made observation chamber, which was centrifuged at 1.000 rpm for 2 minutes to spread the viscous fluid. The silicone surface was then crosslinked by passing it through a Bunsen flame; a flaming time of 1 second produced a surface stiffness that restricted wrinkle formation to fibroblasts with high contractile force (Hinz et al., supra). The polymerized silicone surface was finally coated with 10 μg/ml collagen type I (Sigma) for 2 hours at 37° C. Lung fibroblast cells were seeded at a density of 3.5×10^3 cells/cm^2 and cultured for 1-2 days before the experiment. […]

N=C(N)NCCC[C@H](NC(=O)CNC(=O)[C@H](Cc1ccc(O)cc1)NC(=O)CN)C(=O)N[C@@H](CCCCN)C(=O)N[C@@H](CCCCN)C(=O)N[C@@H](CCCNC(=N)N)C(=O)N[C@@H](CCCNC(=N)N)C(=O)N[C@@H](CCC(N)=O)C(=O)N[C@@H](CCCNC(=N)N)C(=O)N[C@@H](CCCNC(=N)N)C(=O)N[C@@H](CCCNC(=N)N)C(=O)NCC(=O)O [L-Tat]
cytotoxicity (MTT) [1]: no marked cytotoxicity
internalization of FITC-labeled peptide [2]: crosses the basal membrane
dose dependence of inhibition of neurosecretion [3]: dose dependent inhibition
inhibition of secretion, stability test ([3]; 0 hours): 50%
inhibition of secretion, stability test ([3]; 1 hour): 38%
inhibition of secretion, stability test ([3]; 24 hours): 35%
inhibition of secretion, stability test ([3]; 48 hours): 39%
inhibition of secretion, stability test ([3]; No Serum): 65%
dose dependence of inhibition of neurosecretion ([3]; listed as L-Bel1): dose dependent
inhibition of PC12 neurotransmitter secretion ([3]; peptide 10 μM): >20%
inhibition of PC12 neurotransmitter secretion ([3]; peptide 50 μM): 50%
inhibition of PC12 neurotransmitter secretion ([3]; peptide 100 μM): 55%
inhibition of PC12 neurotransmitter secretion ([3]; peptide 100 μM, listed as L-Bel1): more than 60%
inhibition of PC12 neurotransmitter secretion ([3]; peptide 250 μM): 70%
relaxing effect on lung myofibroblasts on silicon substrate [4]: slow but constant loss of silicon substrate wrinkles and cell detachment

Reference: patent US8318898B2, “Synthetic peptides for use as inhibitors of neurotransmitter secretion and as inducers of cellular relaxation” (Universite de Lausanne, priority 2005, dated 2012)
